Results reported in patent US20220089609A1, “SUBSTITUTED QUINAZOLINONE DERIVATIVES AND THEIR USE AS POSITIVE ALLOSTERIC MODULATORS OF MGLUR4” (DOMAIN THERAPEUTICS, priority 2018, published 2022).
“And” between values parts separate entries of the source, which are not always exact repeats. Identical values can stand only once.

Experiments:
human mGluR4 (hmGluR4) = biological target: T1, human mGluR4 (hmGluR4) (Homo sapiens, UniProt Q14833); test: Calcium assay EC50 determination, positive allosteric modulator activity on hmGluR4 transiently over-expressed in HEK-293 cells; assay type: cell-based; conditions: PAM mode with EC20 glutamate; hmGluR4 in HEK-293 cells; intracellular calcium (Fluo4AM); read-out: mGluR4 positive allosteric modulator activity, half maximal effective concentration (EC50)
T1 construct: expressed in transfected cells; host or cells: HEK-293 cells, transient co-transfection by electroporation
Method in brief: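 HEK-293 cells transiently co-transfected with hmGluR4, chimeric G protein and glutamate transporters; Fluo4AM calcium read (ex 485/em 525 nm) on FLIPR Tetra. Compound alone 10 min for agonism, then EC20 glutamate with 3 min recording for PAM activity, versus buffer or EC20 glutamate basal.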

T1 sequence (Q14833 33-912): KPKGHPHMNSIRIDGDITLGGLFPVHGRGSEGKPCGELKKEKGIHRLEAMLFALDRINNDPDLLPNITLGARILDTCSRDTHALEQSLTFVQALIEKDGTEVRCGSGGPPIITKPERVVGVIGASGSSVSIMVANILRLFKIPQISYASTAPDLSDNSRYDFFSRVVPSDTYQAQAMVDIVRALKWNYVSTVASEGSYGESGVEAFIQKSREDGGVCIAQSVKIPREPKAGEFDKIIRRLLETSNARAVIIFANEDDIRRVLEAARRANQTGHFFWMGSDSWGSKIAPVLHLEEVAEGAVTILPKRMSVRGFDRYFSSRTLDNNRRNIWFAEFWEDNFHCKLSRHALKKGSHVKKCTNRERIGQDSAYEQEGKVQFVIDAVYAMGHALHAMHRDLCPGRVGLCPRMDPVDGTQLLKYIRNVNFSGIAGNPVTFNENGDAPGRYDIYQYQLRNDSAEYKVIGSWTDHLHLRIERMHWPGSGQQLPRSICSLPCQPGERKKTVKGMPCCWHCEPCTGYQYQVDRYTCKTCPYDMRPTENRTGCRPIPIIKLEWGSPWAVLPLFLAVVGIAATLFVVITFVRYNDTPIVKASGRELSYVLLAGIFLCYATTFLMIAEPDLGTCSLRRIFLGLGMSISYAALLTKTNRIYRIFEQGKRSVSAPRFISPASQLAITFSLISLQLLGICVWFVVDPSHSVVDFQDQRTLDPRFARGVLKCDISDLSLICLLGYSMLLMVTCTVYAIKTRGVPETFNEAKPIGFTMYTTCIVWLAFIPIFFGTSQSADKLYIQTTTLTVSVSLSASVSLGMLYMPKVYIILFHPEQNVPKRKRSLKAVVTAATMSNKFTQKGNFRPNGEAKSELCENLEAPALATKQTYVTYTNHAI

EC50 (human mGluR4 (hmGluR4))	melting point	SMILES
≤ 100 nM	> 250 °C	Cc1cc(CCN2CCOCC2)cc2c(=O)[nH]c(-c3cc4sccc4cn3)nc12.Cl [Compound 123, 8-Methyl-6-(2-morpholin-4-yl-ethyl)-2-thieno[3,2-c]pyridin-6-yl-3H-quinazolin-4-one hydrochloride]
≤ 100 nM	106 to 116 °C	Cc1cc(CCN2CCOC(C)(C)C2)cc2c(=O)[nH]c(-c3cc(C(F)(F)F)ccn3)nc12.Cl [Compound 160, 6-(2-(2,2-dimethylmorpholino)ethyl)-8-methyl-2-(4-(trifluoromethyl)pyridin-2-yl)quinazolin-4(3H)-one hydrochloride]
100 to 1000 nM	115 to 125 °C	Cc1cc(CCN2CCC(O)CC2)cc2c(=O)[nH]c(-c3cc(C(F)(F)F)ccn3)nc12.Cl [Compound 164, 6-(2-(4-hydroxypiperidin-1-yl)ethyl)-8-methyl-2-(4-(trifluoromethyl)pyridin-2-yl)quinazolin-4(3H)-one hydrochloride]
≤ 100 nM	90 to 110 °C	Cc1cc(OC2CCC(=O)N(C)C2)cc2c(=O)[nH]c(-c3cc4sccc4cn3)nc12 (stereo not drawn) [Compound 129, 8-Methyl-6-(1-methyl-6-oxo-piperidin-3-yloxy)-2-thieno[3,2-c]pyridin-6-yl-3H-quinazolin-4-one]
> 10000 nM	181 to 187 °C	COCCOc1ccc2nc(-c3cc4cccn4cn3)[nH]c(=O)c2c1 [Compound 34, 6-(2-Methoxy-ethoxy)-2-pyrrolo[1,2-c]pyrimidin-3-yl-3H-quinazolin-4-one]
100 to 1000 nM	> 250 °C	COC1CCN(CCc2cc(C)c3nc(-c4cc(C(F)(F)F)ccn4)[nH]c(=O)c3c2)CC1.Cl [Compound 166, 6-(2-(4-methoxypiperidin-1-yl)ethyl)-8-methyl-2-(4-(trifluoromethyl)pyridin-2-yl)quinazolin-4(3H)-one hydrochloride]
100 to 1000 nM	> 250 °C	Cc1cc(CN2CCN(C)C(=O)C2)cc2c(=O)[nH]c(-c3cc(C(F)(F)F)ccn3)nc12.Cl [Compound 161, 8-Methyl-6-((4-methyl-3-oxopiperazin-1-yl)methyl)-2-(4-(trifluoromethyl)pyridin-2-yl)quinazolin-4(3H)-one hydrochloride]
1000 to 10000 nM	> 250 °C	Cc1cc(CN2CCCC2)cc2c(=O)[nH]c(-c3cc4sccc4cn3)nc12.Cl [Compound 139, 8-Methyl-6-(pyrrolidin-1-ylmethyl)-2-thieno[3,2-c]pyridin-6-yl-3H-quinazolin-4-one hydrochloride]
1000 to 10000 nM	> 250 °C	Cl.O=c1[nH]c(-c2cc3sccc3cn2)nc2ccc(OCCN3CCOCC3)cc12 [Compound 35, 6-(2-Morpholin-4-yl-ethoxy)-2-thieno[3,2-c]pyridin-6-yl-3H-quinazolin-4-one hydrochloride]
1000 to 10000 nM	> 250 °C	Cl.O=c1[nH]c(-c2ccc(F)cn2)nc2ccc(OCCCc3ccncc3)cc12 [Compound 8, 2-(5-Fluoro-pyridin-2-yl)-6-(3-pyridin-4-yl-propoxy)-3H-quinazolin-4-one hydrochloride]
≤ 100 nM	> 250 °C	Cc1cc(CCN2CCCOCC2)cc2c(=O)[nH]c(-c3cnc4ccsc4c3)nc12.Cl [Compound 122, 8-Methyl-6-(2-[1,4]oxazepan-4-yl-ethyl)-2-thieno[3,2-b]pyridin-6-yl-3H-quinazolin-4-one hydrochloride]
100 to 1000 nM	234 to 239 °C	CCC(=O)N1CCC(COc2ccc3nc(-c4cc5ccsc5cn4)[nH]c(=O)c3c2)CC1 [Compound 48, 6-(1-Propionyl-piperidin-4-ylmethoxy)-2-thieno[2,3-c]pyridin-5-yl-3H-quinazolin-4-one]
100 to 1000 nM	230 to 240 °C	Cl.O=c1[nH]c(-c2cc3ccsc3cn2)nc2ccc(OCCCc3cnccn3)cc12 [Compound 61, 6-(3-Pyrazin-2-yl-propoxy)-2-thieno[2,3-c]pyridin-5-yl-3H-quinazolin-4-one hydrochloride]
100 to 1000 nM and < 1000 nM	> 250 °C	Cl.O=c1[nH]c(-c2ccccn2)nc2ccc(OCCCc3ccncc3)cc12 [Compound 5, 2-Pyridin-2-yl-6-(3-pyridin-4-yl-propoxy)-3H-quinazolin-4-one hydrochloride]
100 to 1000 nM	230 to 240 °C	CCC(=O)N1CC(Oc2cc(C)c3nc(-c4cc5ccsc5cn4)[nH]c(=O)c3c2)C1 [Compound 116, 8-methyl-6-(1-propanoylazetidin-3-yl)oxy-2-thieno[2,3-c]pyridin-5-yl-3H-quinazolin-4-one]
1000 to 10000 nM	220 to 225 °C	Cc1cc(CCN2CC3(COC3)C2)cc2c(=O)[nH]c(-c3cc4ccsc4cn3)nc12 [Compound 145, 8-Methyl-6-[2-(2-oxa-6-azaspiro[3.3]heptan-6-yl)ethyl]-2-thieno[2,3-c]pyridin-5-yl-3H-quinazolin-4-one]
100 to 1000 nM	240 to 250 °C	Cc1cc(CCN2CCC(F)(F)CC2)cc2c(=O)[nH]c(-c3cc(C(F)(F)F)ccn3)nc12.Cl [Compound 165, 6-(2-(4,4-difluoropiperidin-1-yl)ethyl)-8-methyl-2-(4-(trifluoromethyl)pyridin-2-yl)quinazolin-4(3H)-one hydrochloride]
100 to 1000 nM	> 250 °C	Cc1cc(CCN2CCN(C)C(=O)C2)cc2c(=O)[nH]c(-c3cc4ccsc4cn3)nc12.Cl [Compound 142, 8-Methyl-6-[2-(4-methyl-3-oxo-piperazin-1-yl)ethyl]-2-thieno[2,3-c]pyridin-5-yl-3H-quinazolin-4-one hydrochloride]
100 to 1000 nM	> 250 °C	Cc1cc(CC(=O)N2CCOCC2)cc2c(=O)[nH]c(-c3cc4ccsc4cn3)nc12 [Compound 127, 8-Methyl-6-(2-morpholino-2-oxo-ethyl)-2-thieno[2,3-c]pyridin-5-yl-3H-quinazolin-4-one]
100 to 1000 nM	> 250 °C	Cl.O=c1[nH]c(-c2cc(C(F)(F)F)ccn2)nc2ccc(OCCCc3ccncc3)nc12 [Compound 67, 6-(3-Pyridin-4-yl-propoxy)-2-(4-trifluoromethyl-pyridin-2-yl)-3H-pyrido[3,2-d]pyrimidin-4-one hydrochloride]
≤ 100 nM	150 to 180 °C	Cc1cc(O[C@@H](C)C2CCOCC2)cc2c(=O)[nH]c(-c3cc4ccsc4cn3)nc12 [Compound 110-S, S-8-Methyl-6-[1-(tetrahydro-pyran-4-yl)-ethoxy]-2-thieno[2,3-c]pyridin-5-yl-3H-quinazolin-4-one]
1000 to 10000 nM	> 250 °C	Cl.O=c1[nH]c(-c2cc3ccccc3cn2)nc2ccc(OCCCc3ccncc3)cc12 [Compound 2, 2-Isoquinolin-3-yl-6-(3-pyridin-4-yl-propoxy)-3H-quinazolin-4-one hydrochloride]
100 to 1000 nM	250 to 251 °C	COc1cnccc1CCCOc1ccc2nc(-c3cc4ccsc4cn3)[nH]c(=O)c2c1.Cl [Compound 62, 6-[3-(3-Methoxy-pyridin-4-yl)-propoxy]-2-thieno[2,3-c]pyridin-5-yl-3H-quinazolin-4-one hydrochloride]
1000 to 10000 nM	> 250 °C	COc1cc(CCN2CCOCC2)cc2c(=O)[nH]c(-c3cc(C(F)(F)F)ccn3)nc12.Cl [Compound 158, 8-Methoxy-6-(2-morpholinoethyl)-2-(4-(trifluoromethyl)pyridin-2-yl)quinazolin-4(3H)-one hydrochloride]
≤ 100 nM	> 250 °C	Cl.O=c1[nH]c(-c2cc(C(F)(F)F)ccn2)nc2c(Br)cc(CCN3CCOCC3)cc12 [Compound 159, 8-Bromo-6-(2-morpholinoethyl)-2-(4-(trifluoromethyl)pyridin-2-yl)quinazolin-4(3H)-one hydrochloride]
100 to 1000 nM	160 to 200 °C	Cc1cc(CCN2CC3(COC3)C2)cc2c(=O)[nH]c(-c3cc4sccc4cn3)nc12 [Compound 146, 8-Methyl-6-[2-(2-oxa-6-azaspiro[3.3]heptan-6-yl)ethyl]-2-thieno[3,2-c]pyridin-6-yl-3H-quinazolin-4-one]

SMILES	EC50 (human mGluR4 (hmGluR4))	melting point
Cc1cc(CCN2C3CCC2COC3)cc2c(=O)[nH]c(-c3cc(C(F)(F)F)ccn3)nc12.Cl [Compound 163, 6-(2-(3-oxa-8-azabicyclo[3.2.1]octan-8-yl)ethyl)-8-methyl-2-(4-(trifluoromethyl)pyridin-2-yl)quinazolin-4(3H)-one hydrochloride]	≤ 100 nM	200 to 250 °C
